Measurements as given in patent US9790228B2, “Heterocyclic kinase inhibitors” (Intellikine LLC, priority 2008, dated 2017).

target: p110α/p85α (Homo sapiens (Human), UniProt P42336); experiment: PI3K α inhibition assay (TLC lipid kinase or HTRF); format: biochemical; conditions: not given
Procedure, shortened: (§1)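 IC50 from TLC lipid kinase assay (25 mM HEPES pH 7.4, 10 mM MgCl2, 100 μg/ml phosphatidylinositol, 10 or 100 μM γ-32P-ATP, 5 min RT, phosphorimager) at 10–12 two-fold dilutions, or HTRF (10 μM PIP2, 10 μM ATP, 1 h RT) measuring PIP3 by TR-FRET; 2% DMSO final.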

Chain of p110α/p85α (P42336 whole entry): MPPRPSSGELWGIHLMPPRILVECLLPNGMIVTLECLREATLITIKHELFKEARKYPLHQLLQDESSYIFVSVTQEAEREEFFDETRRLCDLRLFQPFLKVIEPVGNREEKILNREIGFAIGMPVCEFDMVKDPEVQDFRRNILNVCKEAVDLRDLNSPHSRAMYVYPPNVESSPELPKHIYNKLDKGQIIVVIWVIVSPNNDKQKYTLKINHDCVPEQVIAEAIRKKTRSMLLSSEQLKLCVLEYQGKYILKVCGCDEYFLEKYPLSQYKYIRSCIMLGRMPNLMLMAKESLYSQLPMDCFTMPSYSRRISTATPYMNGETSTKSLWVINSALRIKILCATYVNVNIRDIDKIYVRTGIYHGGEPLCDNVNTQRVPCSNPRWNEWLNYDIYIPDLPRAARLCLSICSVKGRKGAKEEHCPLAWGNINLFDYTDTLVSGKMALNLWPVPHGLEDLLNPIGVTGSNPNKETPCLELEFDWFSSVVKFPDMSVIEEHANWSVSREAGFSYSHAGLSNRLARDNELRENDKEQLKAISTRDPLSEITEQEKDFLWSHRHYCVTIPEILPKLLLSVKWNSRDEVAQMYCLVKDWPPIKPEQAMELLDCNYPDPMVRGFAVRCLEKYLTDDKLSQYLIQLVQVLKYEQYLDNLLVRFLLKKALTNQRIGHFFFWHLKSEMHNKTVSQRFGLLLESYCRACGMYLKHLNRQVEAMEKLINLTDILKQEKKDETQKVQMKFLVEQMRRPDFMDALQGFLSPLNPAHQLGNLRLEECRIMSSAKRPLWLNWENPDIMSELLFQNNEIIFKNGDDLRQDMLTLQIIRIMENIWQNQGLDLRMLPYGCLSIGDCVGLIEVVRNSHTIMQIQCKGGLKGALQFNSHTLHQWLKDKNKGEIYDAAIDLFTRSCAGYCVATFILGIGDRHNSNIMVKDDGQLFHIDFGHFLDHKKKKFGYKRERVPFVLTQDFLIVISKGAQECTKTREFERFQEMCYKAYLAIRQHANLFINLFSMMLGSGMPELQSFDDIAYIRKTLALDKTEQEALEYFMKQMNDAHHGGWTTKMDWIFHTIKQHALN
Chain of p110α/p85α (P27986 whole entry partner): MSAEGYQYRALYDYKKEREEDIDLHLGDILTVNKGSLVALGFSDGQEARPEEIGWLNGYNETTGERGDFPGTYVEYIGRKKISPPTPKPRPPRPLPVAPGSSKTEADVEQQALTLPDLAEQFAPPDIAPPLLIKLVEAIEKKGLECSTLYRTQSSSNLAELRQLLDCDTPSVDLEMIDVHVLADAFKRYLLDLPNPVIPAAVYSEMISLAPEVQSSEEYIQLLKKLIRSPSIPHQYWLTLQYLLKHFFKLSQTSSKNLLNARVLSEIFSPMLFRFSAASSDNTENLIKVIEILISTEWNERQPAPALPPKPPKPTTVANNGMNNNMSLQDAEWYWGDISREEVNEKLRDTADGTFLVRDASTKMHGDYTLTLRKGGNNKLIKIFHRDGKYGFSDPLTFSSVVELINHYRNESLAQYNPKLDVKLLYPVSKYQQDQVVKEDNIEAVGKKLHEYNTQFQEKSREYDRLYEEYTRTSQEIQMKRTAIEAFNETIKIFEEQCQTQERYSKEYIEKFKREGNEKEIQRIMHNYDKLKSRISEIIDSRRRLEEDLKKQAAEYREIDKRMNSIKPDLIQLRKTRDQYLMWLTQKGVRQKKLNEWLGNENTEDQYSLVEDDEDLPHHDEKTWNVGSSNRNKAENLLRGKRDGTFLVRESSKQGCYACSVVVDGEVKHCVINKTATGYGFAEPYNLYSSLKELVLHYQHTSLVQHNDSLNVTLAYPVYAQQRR

SMILES | IC50
Nc1ccnc2c1c(-c1cccc(O)c1)nn2Cc1cc2ccccc2nc1-c1cccnc1 [Compound 77] | > 1000 nM
Nc1ccc2cc(-c3nn(Cc4cc5ccccc5nc4N4CCOCC4)c4ncnc(N)c34)ccc2n1 [Compound 140] | < 100 nM
CC(c1cc2ccccc2nc1-c1ccccc1)n1nc(C#C[C@@H](C)O)c2c(N)ncnc21 (stereo partly drawn) [Compound 71] | > 1000 nM
CN1CCN(c2nc3ccccc3cc2Cn2nc(-c3cccc(O)c3)c3c(N)ncnc32)CC1 [Compound 43] | > 1000 nM
Nc1ncnc2c1c(I)nn2Cc1cc2ccccc2nc1N1CCCC1 [Compound 1] | > 1000 nM
Nc1ncnc2c1c(-c1cc(O)cc(F)c1)nn2Cc1cc2ccccc2nc1NCCN1CCOCC1 [Compound 75] | > 1000 nM
CC(=O)Nc1nc2ccc(-c3nn(Cc4cc5ccccc5nc4N4CCN(C)CC4)c4ncnc(N)c34)cc2s1 [Compound 70] | 100 to 1000 nM
CN1CCN(CCc2nc3ccccc3cc2Cn2nc(-c3cc(O)cc(F)c3)c3c(N)ncnc32)CC1 [Compound 168] | > 1000 nM
Nc1ncnc2c1c(-c1cccc(O)c1)nn2Cc1cc2ccccc2nc1N1CCOCC1 [Compound 64] | > 1000 nM
Cc1ccccc1-c1nc2c(C)cccc2cc1Cn1nc(I)c2c(N)ncnc21 [Compound 7] | > 1000 nM
Nc1ncnc2ccc(-c3nn(Cc4cc5ccccc5nc4-c4ccccc4)c4ncnc(N)c34)cc12 [Compound 146] | > 1000 nM
Nc1nc2ccc(-c3nn(Cc4cc5ccccc5nc4-c4ccccc4C(F)(F)F)c4ncnc(N)c34)cc2[nH]1 [Compound 181] | > 1000 nM
Nc1ncc2cc(-c3nn(Cc4cc5ccccc5nc4-c4ccccc4F)c4ncnc(N)c34)ccc2n1 [Compound 135] | 100 to 1000 nM
Nc1nc2ccc(-c3nn(Cc4cc5ccccc5nc4-c4ccccc4F)c4ncnc(N)c34)cc2s1 [Compound 85] | 100 to 1000 nM
Cc1ccccc1-c1nc2ccccc2cc1Cn1nc(-c2ccc3nc(N)ncc3c2)c2c(N)ncnc21 [Compound 132] | < 100 nM

target: p110δ/p85α (Homo sapiens (Human), UniProt O00329); experiment: PI3K δ inhibition assay (TLC lipid kinase or HTRF); format: biochemical; conditions: not given
Procedure, shortened: as §1

Chain of p110δ/p85α (O00329 whole entry): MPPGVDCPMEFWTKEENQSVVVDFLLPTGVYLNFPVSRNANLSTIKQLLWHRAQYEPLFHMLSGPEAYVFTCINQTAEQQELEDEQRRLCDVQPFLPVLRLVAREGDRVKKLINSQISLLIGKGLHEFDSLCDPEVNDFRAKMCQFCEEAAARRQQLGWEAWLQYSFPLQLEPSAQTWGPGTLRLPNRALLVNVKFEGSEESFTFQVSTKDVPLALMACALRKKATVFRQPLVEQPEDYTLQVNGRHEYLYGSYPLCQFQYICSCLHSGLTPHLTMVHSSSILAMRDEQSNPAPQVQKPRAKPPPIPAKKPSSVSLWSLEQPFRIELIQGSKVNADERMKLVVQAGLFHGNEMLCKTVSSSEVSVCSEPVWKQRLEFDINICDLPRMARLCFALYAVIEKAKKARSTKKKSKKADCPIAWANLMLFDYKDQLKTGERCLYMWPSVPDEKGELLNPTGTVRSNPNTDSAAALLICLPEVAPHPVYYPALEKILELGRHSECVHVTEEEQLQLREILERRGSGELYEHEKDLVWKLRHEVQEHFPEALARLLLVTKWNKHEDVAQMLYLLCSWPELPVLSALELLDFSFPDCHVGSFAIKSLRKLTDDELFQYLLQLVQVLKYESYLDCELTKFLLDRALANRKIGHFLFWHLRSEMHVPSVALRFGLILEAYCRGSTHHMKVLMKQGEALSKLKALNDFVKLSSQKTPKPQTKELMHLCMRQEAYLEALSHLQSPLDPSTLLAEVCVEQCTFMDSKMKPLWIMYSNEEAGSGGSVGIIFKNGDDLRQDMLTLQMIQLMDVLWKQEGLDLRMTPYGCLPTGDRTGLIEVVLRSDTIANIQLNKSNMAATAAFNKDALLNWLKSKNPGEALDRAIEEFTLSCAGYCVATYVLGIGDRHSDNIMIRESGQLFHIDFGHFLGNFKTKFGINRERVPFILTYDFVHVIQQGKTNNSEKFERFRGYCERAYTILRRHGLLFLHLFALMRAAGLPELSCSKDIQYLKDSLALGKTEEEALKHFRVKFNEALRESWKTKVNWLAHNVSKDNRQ
Chain of p110δ/p85α (P27986 whole entry partner): as the sequence (P27986 whole entry partner) above

SMILES | IC50
Nc1ccnc2c1c(-c1cccc(O)c1)nn2Cc1cc2ccccc2nc1-c1cccnc1 [Compound 77] | < 100 nM
Nc1ccc2cc(-c3nn(Cc4cc5ccccc5nc4N4CCOCC4)c4ncnc(N)c34)ccc2n1 [Compound 140] | < 100 nM
CC(c1cc2ccccc2nc1-c1ccccc1)n1nc(C#C[C@@H](C)O)c2c(N)ncnc21 (stereo partly drawn) [Compound 71] | < 100 nM
CN1CCN(c2nc3ccccc3cc2Cn2nc(-c3cccc(O)c3)c3c(N)ncnc32)CC1 [Compound 43] | < 100 nM
Nc1ncnc2c1c(I)nn2Cc1cc2ccccc2nc1N1CCCC1 [Compound 1] | < 100 nM
Nc1ncnc2c1c(-c1cc(O)cc(F)c1)nn2Cc1cc2ccccc2nc1NCCN1CCOCC1 [Compound 75] | < 100 nM
CC(=O)Nc1nc2ccc(-c3nn(Cc4cc5ccccc5nc4N4CCN(C)CC4)c4ncnc(N)c34)cc2s1 [Compound 70] | < 100 nM
CN1CCN(CCc2nc3ccccc3cc2Cn2nc(-c3cc(O)cc(F)c3)c3c(N)ncnc32)CC1 [Compound 168] | < 100 nM
Nc1ncnc2c1c(-c1cccc(O)c1)nn2Cc1cc2ccccc2nc1N1CCOCC1 [Compound 64] | < 100 nM
Cc1ccccc1-c1nc2c(C)cccc2cc1Cn1nc(I)c2c(N)ncnc21 [Compound 7] | < 100 nM
Nc1ncnc2ccc(-c3nn(Cc4cc5ccccc5nc4-c4ccccc4)c4ncnc(N)c34)cc12 [Compound 146] | < 100 nM
Nc1nc2ccc(-c3nn(Cc4cc5ccccc5nc4-c4ccccc4C(F)(F)F)c4ncnc(N)c34)cc2[nH]1 [Compound 181] | < 100 nM
Nc1ncc2cc(-c3nn(Cc4cc5ccccc5nc4-c4ccccc4F)c4ncnc(N)c34)ccc2n1 [Compound 135] | < 100 nM
Nc1nc2ccc(-c3nn(Cc4cc5ccccc5nc4-c4ccccc4F)c4ncnc(N)c34)cc2s1 [Compound 85] | < 100 nM
Cc1ccccc1-c1nc2ccccc2cc1Cn1nc(-c2ccc3nc(N)ncc3c2)c2c(N)ncnc21 [Compound 132] | < 100 nM

target: p110β/p85α (Homo sapiens, UniProt P42338); experiment: PI3K β inhibition assay (TLC lipid kinase or HTRF); format: biochemical; conditions: read-out: PI3K β IC50
Procedure, shortened: as §1

Chain of p110β/p85α (P42338 whole entry, looked up): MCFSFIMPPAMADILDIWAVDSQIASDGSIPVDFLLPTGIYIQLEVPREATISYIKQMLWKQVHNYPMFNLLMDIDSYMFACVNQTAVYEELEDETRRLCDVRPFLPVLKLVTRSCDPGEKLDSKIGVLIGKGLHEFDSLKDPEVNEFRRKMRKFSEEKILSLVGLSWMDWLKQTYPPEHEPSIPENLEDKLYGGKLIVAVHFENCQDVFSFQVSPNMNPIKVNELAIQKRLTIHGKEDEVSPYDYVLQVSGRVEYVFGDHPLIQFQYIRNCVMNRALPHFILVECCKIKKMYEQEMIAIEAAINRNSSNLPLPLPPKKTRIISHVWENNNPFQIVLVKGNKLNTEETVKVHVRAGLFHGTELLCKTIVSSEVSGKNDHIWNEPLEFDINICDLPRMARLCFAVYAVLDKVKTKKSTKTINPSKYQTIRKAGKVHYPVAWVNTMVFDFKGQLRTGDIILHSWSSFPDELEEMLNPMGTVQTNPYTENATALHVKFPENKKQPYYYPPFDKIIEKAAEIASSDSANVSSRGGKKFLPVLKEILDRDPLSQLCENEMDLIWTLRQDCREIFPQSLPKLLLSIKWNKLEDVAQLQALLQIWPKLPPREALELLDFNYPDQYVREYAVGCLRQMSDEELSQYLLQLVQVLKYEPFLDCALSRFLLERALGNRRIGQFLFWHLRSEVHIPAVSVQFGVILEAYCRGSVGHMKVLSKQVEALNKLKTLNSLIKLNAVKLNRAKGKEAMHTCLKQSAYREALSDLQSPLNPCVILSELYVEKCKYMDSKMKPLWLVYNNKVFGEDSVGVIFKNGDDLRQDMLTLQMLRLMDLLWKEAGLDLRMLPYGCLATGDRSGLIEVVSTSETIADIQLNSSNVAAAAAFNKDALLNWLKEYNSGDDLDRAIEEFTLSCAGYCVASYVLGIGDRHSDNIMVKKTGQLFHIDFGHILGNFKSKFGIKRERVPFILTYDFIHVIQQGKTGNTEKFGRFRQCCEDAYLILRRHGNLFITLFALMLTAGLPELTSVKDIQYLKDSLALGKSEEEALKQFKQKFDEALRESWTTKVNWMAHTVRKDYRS

SMILES | IC50
Nc1ccnc2c1c(-c1cccc(O)c1)nn2Cc1cc2ccccc2nc1-c1cccnc1 [Compound 77] | > 1000 nM
Nc1ccc2cc(-c3nn(Cc4cc5ccccc5nc4N4CCOCC4)c4ncnc(N)c34)ccc2n1 [Compound 140] | 100 to 1000 nM
CC(c1cc2ccccc2nc1-c1ccccc1)n1nc(C#C[C@@H](C)O)c2c(N)ncnc21 (stereo partly drawn) [Compound 71] | > 1000 nM
CN1CCN(c2nc3ccccc3cc2Cn2nc(-c3cccc(O)c3)c3c(N)ncnc32)CC1 [Compound 43] | 100 to 1000 nM
Nc1ncnc2c1c(I)nn2Cc1cc2ccccc2nc1N1CCCC1 [Compound 1] | > 1000 nM
Nc1ncnc2c1c(-c1cc(O)cc(F)c1)nn2Cc1cc2ccccc2nc1NCCN1CCOCC1 [Compound 75] | > 1000 nM
CC(=O)Nc1nc2ccc(-c3nn(Cc4cc5ccccc5nc4N4CCN(C)CC4)c4ncnc(N)c34)cc2s1 [Compound 70] | < 100 nM
CN1CCN(CCc2nc3ccccc3cc2Cn2nc(-c3cc(O)cc(F)c3)c3c(N)ncnc32)CC1 [Compound 168] | 100 to 1000 nM
Nc1ncnc2c1c(-c1cccc(O)c1)nn2Cc1cc2ccccc2nc1N1CCOCC1 [Compound 64] | > 1000 nM
Cc1ccccc1-c1nc2c(C)cccc2cc1Cn1nc(I)c2c(N)ncnc21 [Compound 7] | > 1000 nM
Nc1ncnc2ccc(-c3nn(Cc4cc5ccccc5nc4-c4ccccc4)c4ncnc(N)c34)cc12 [Compound 146] | > 1000 nM
Nc1nc2ccc(-c3nn(Cc4cc5ccccc5nc4-c4ccccc4C(F)(F)F)c4ncnc(N)c34)cc2[nH]1 [Compound 181] | > 1000 nM
Nc1ncc2cc(-c3nn(Cc4cc5ccccc5nc4-c4ccccc4F)c4ncnc(N)c34)ccc2n1 [Compound 135] | > 1000 nM
Nc1nc2ccc(-c3nn(Cc4cc5ccccc5nc4-c4ccccc4F)c4ncnc(N)c34)cc2s1 [Compound 85] | > 1000 nM
Cc1ccccc1-c1nc2ccccc2cc1Cn1nc(-c2ccc3nc(N)ncc3c2)c2c(N)ncnc21 [Compound 132] | 100 to 1000 nM

system: Balb/c splenic B cells; experiment: B cell activation and proliferation assay (Alamar Blue); format: cell-based, mouse; conditions: Mus musculus, B-cell
Procedure, shortened: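 Purified Balb/c splenic B cells, 50,000/well, pretreated with compound 30 min (0.2% DMSO), then stimulated with 10 ug/ml LPS or 5 ug/ml anti-IgM F(ab′)2 plus 2 ng/ml IL4 (cocktail concentrations) for 72 h at 37 °C. Alamar Blue 5 h, fluorescence 560/590 nm; IC50/EC50 calculated.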

SMILES | EC50
Nc1ccnc2c1c(-c1cccc(O)c1)nn2Cc1cc2ccccc2nc1-c1cccnc1 [Compound 77] | < 100 nM
Nc1ccc2cc(-c3nn(Cc4cc5ccccc5nc4N4CCOCC4)c4ncnc(N)c34)ccc2n1 [Compound 140] | < 100 nM
CC(c1cc2ccccc2nc1-c1ccccc1)n1nc(C#C[C@@H](C)O)c2c(N)ncnc21 (stereo partly drawn) [Compound 71] | 100 to 1000 nM
CN1CCN(c2nc3ccccc3cc2Cn2nc(-c3cccc(O)c3)c3c(N)ncnc32)CC1 [Compound 43] | 100 to 1000 nM
Nc1ncnc2c1c(I)nn2Cc1cc2ccccc2nc1N1CCCC1 [Compound 1] | 100 to 1000 nM
Nc1ncnc2c1c(-c1cc(O)cc(F)c1)nn2Cc1cc2ccccc2nc1NCCN1CCOCC1 [Compound 75] | < 100 nM
CC(=O)Nc1nc2ccc(-c3nn(Cc4cc5ccccc5nc4N4CCN(C)CC4)c4ncnc(N)c34)cc2s1 [Compound 70] | < 100 nM
CN1CCN(CCc2nc3ccccc3cc2Cn2nc(-c3cc(O)cc(F)c3)c3c(N)ncnc32)CC1 [Compound 168] | < 100 nM
Nc1ncnc2c1c(-c1cccc(O)c1)nn2Cc1cc2ccccc2nc1N1CCOCC1 [Compound 64] | < 100 nM
Cc1ccccc1-c1nc2c(C)cccc2cc1Cn1nc(I)c2c(N)ncnc21 [Compound 7] | 100 to 1000 nM
Nc1ncnc2ccc(-c3nn(Cc4cc5ccccc5nc4-c4ccccc4)c4ncnc(N)c34)cc12 [Compound 146] | 100 to 1000 nM
Nc1nc2ccc(-c3nn(Cc4cc5ccccc5nc4-c4ccccc4C(F)(F)F)c4ncnc(N)c34)cc2[nH]1 [Compound 181] | 100 to 1000 nM
Nc1ncc2cc(-c3nn(Cc4cc5ccccc5nc4-c4ccccc4F)c4ncnc(N)c34)ccc2n1 [Compound 135] | < 100 nM
Nc1nc2ccc(-c3nn(Cc4cc5ccccc5nc4-c4ccccc4F)c4ncnc(N)c34)cc2s1 [Compound 85] | < 100 nM
Cc1ccccc1-c1nc2ccccc2cc1Cn1nc(-c2ccc3nc(N)ncc3c2)c2c(N)ncnc21 [Compound 132] | < 100 nM

target: p110γ (Homo sapiens (Human), UniProt P48736); experiment: PI3K γ inhibition assay (TLC lipid kinase or HTRF); format: biochemical; conditions: not given
Procedure, shortened: as §1

Chain of p110γ (P48736 whole entry): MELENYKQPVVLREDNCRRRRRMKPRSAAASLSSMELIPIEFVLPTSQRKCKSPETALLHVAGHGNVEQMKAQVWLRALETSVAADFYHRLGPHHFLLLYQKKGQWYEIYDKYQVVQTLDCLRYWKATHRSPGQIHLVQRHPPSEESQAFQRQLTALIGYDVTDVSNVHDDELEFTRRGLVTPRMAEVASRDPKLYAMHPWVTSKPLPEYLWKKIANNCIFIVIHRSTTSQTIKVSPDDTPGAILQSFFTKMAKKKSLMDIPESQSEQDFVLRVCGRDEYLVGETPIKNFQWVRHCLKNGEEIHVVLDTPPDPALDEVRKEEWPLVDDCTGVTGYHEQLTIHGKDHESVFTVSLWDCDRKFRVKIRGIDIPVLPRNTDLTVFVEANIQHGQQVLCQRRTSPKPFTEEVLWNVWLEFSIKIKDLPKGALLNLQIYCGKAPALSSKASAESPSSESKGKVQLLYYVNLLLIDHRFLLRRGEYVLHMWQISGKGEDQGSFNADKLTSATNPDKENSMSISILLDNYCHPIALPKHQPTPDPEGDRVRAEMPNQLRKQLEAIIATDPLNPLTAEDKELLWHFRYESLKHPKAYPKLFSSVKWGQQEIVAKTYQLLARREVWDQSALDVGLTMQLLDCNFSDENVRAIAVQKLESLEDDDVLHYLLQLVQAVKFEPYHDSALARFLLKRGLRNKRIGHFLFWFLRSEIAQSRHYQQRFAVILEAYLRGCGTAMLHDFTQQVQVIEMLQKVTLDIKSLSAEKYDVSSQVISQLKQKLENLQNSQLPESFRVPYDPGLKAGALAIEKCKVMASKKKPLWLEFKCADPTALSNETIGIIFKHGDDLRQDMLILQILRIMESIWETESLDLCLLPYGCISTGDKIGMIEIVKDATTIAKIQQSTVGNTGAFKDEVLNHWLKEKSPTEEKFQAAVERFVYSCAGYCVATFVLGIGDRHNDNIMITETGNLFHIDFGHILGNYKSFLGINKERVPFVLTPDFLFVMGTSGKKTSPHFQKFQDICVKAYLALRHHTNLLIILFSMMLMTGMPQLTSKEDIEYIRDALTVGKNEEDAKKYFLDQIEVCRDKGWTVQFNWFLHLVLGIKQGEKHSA

SMILES | IC50
Nc1ccnc2c1c(-c1cccc(O)c1)nn2Cc1cc2ccccc2nc1-c1cccnc1 [Compound 77] | > 1000 nM
Nc1ccc2cc(-c3nn(Cc4cc5ccccc5nc4N4CCOCC4)c4ncnc(N)c34)ccc2n1 [Compound 140] | < 100 nM
CC(c1cc2ccccc2nc1-c1ccccc1)n1nc(C#C[C@@H](C)O)c2c(N)ncnc21 (stereo partly drawn) [Compound 71] | > 1000 nM
CN1CCN(c2nc3ccccc3cc2Cn2nc(-c3cccc(O)c3)c3c(N)ncnc32)CC1 [Compound 43] | > 1000 nM
Nc1ncnc2c1c(I)nn2Cc1cc2ccccc2nc1N1CCCC1 [Compound 1] | < 100 nM
Nc1ncnc2c1c(-c1cc(O)cc(F)c1)nn2Cc1cc2ccccc2nc1NCCN1CCOCC1 [Compound 75] | > 1000 nM
CC(=O)Nc1nc2ccc(-c3nn(Cc4cc5ccccc5nc4N4CCN(C)CC4)c4ncnc(N)c34)cc2s1 [Compound 70] | 100 to 1000 nM
CN1CCN(CCc2nc3ccccc3cc2Cn2nc(-c3cc(O)cc(F)c3)c3c(N)ncnc32)CC1 [Compound 168] | > 1000 nM
Nc1ncnc2c1c(-c1cccc(O)c1)nn2Cc1cc2ccccc2nc1N1CCOCC1 [Compound 64] | 100 to 1000 nM
Cc1ccccc1-c1nc2c(C)cccc2cc1Cn1nc(I)c2c(N)ncnc21 [Compound 7] | < 100 nM
Nc1ncnc2ccc(-c3nn(Cc4cc5ccccc5nc4-c4ccccc4)c4ncnc(N)c34)cc12 [Compound 146] | < 100 nM
Nc1nc2ccc(-c3nn(Cc4cc5ccccc5nc4-c4ccccc4C(F)(F)F)c4ncnc(N)c34)cc2[nH]1 [Compound 181] | < 100 nM
Nc1ncc2cc(-c3nn(Cc4cc5ccccc5nc4-c4ccccc4F)c4ncnc(N)c34)ccc2n1 [Compound 135] | < 100 nM
Nc1nc2ccc(-c3nn(Cc4cc5ccccc5nc4-c4ccccc4F)c4ncnc(N)c34)cc2s1 [Compound 85] | < 100 nM
Cc1ccccc1-c1nc2ccccc2cc1Cn1nc(-c2ccc3nc(N)ncc3c2)c2c(N)ncnc21 [Compound 132] | < 100 nM
